These results are taken from ChEMBL document CHEMBL2390907, “Juglone, isolated from Juglans mandshurica Maxim, induces apoptosis via down-regulation of AR expression in human prostate cancer LNCaP cells” (Bioorg Med Chem Lett, 2013).

In assay [1] the test system is LNCaP. The experiment in a line: Induction of apoptosis in human LNCAP cells assessed as decrease of DHT-induced prostate-specific antigen mRNA expression at 15 uM treated 2 hrs before DHT challenge measured after 24 hrs by RT-PCR analysis. The class given is functional, cell-based.
The test system of assay [2] is LNCaP. The experiment in a line: Induction of apoptosis in human LNCAP cells assessed as decrease of DHT-induced androgen receptor mRNA expression at 15 uM treated 2 hrs before DHT challenge measured after 24 hrs by RT-PCR analysis. The class given is functional, cell-based.
Assay [3] deals with LNCaP. The assay is described as follows: Induction of apoptosis in human LNCAP cells assessed as decrease of prostate-specific antigen protein expression at 5 uM after 24 hrs by Western blot analysis. The class given is functional, cell-based.
Assay [4] has as its system LNCaP. The assay is described as follows: Induction of apoptosis in human LNCAP cells assessed as decrease of androgen receptor protein expression at 5 uM after 24 hrs by Western blot analysis. The class given is functional, cell-based. (A western blot detects proteins with antibodies after separation by electrophoresis.)
Assay [5] has as its system LNCaP. The assay is described as follows: Induction of apoptosis in human LNCAP cells assessed as decrease of prostate-specific antigen protein expression after 24 hrs by Western blot analysis. The class given is functional, cell-based.
Assay [6] relates to LNCaP. The experiment in a line: Induction of apoptosis in human LNCAP cells assessed as decrease of androgen receptor protein expression after 24 hrs by Western blot analysis. In kind it is functional, cell-based.
Assay [7] concerns LNCaP. The experiment in a line: Induction of apoptosis in human LNCAP cells assessed as decrease of mitochondria membrane potential after 24 hrs using rhodamine 123 dye by flow cytometry. In kind it is functional, cell-based.
Assay [8] relates to LNCaP. The assay is described as follows: Induction of apoptosis in human LNCAP cells assessed as activation of caspase-3 and 9 at 15 uM after 24 hrs by Western blot analysis relative to control. The class given is functional.
Assay [9] relates to LNCaP. The assay is described as follows: Induction of apoptosis in human LNCAP cells assessed as cleavage of precursor of caspase-3 and 9 after 24 hrs by Western blot analysis. In kind it is functional, cell-based.
For assay [10], the system named is LNCaP. The experiment in a line: Induction of apoptosis in human LNCAP cells assessed as increase of annexin V-FITC/PI staining positive cells after 24 hrs by flow cytometry. The class given is functional, cell-based.
Assay [11] relates to LNCaP. The assay is described as follows: Induction of apoptosis in human LNCAP cells assessed as membrane blebbing at 5 to 15 uM after 24 hrs using Hoechst 33342 staining by fluorescence microscopic analysis. The class given is functional, cell-based.
The subject of assay [12] is LNCaP. The experiment in a line: Induction of apoptosis in human LNCAP cells assessed as cell shrinkage at 5 to 15 uM after 24 hrs using Hoechst 33342 staining by fluorescence microscopic analysis. The class given is functional, cell-based.
Assay [13] deals with LNCaP. The assay is described as follows: Induction of apoptosis in human LNCAP cells assessed as nuclear condensation at 5 to 15 uM after 24 hrs using Hoechst 33342 staining by fluorescence microscopic analysis. In kind it is functional, cell-based.
The test system of assay [14] is LNCaP. The experiment in a line: Antiproliferative activity against human LNCAP cells after 24 hrs by MTT assay. In kind it is functional, cell-based.

Activity calls are given as the source filed them. The calls are words filed in the database; no cut-off is given here.

A word on the IC50: it is the midpoint of a concentration-inhibition curve. Lower therefore signals higher potency. On to `O=C1C=CC(=O)c2c(O)cccc21` [JUGLONE], for which the result with LNCaP [1], in the assay with LNCaP [2], in the assay on LNCaP [11], in the assay with LNCaP [12] and in the assay with LNCaP [13] was Active. Further, the outcome in the assay with LNCaP [3] and in the assay on LNCaP [4] was inactive. Further, the Activity result in the assay on LNCaP [5], in the assay with LNCaP [6], with LNCaP [7], with LNCaP [9], in the assay with LNCaP [10] and in the assay with LNCaP [14] was “Dose-dependent effect” each time. In addition, the “fold change (FC)” value in the assay with LNCaP [8] was over 2.5. The same molecule showed a 50% inhibitory concentration (IC50) with LNCaP [14] of 13.8 µM.
